Laboratory results from PubChem BioAssay AID179 (DTP/NCI, 2004).
Activity calls are given as the source filed them.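 Rule for the calls: active = compounds giving half or more protection of infected cells from virus-caused growth loss, again on retest; inactive = the rest.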 Where a SMILES comes first, the peptide text is derived from it. [ ]: non-standard residue; d: D form. The star is where a group is joined. NMeF = CN[CH](Cc1ccccc1)C(=O)O; NMeV = CN[CH](C(=O)O)C(C)C; Boc = CC(C)(C)OC(=O)*

System: CEM cells HIV-1 protection, formazan growth assay
Experiment: NCI AIDS Antiviral Assay
Conditions: for IC50: measured here: growth of uninfected CEM cells
Procedure: The ability of compounds to protect human CEM cells from HIV-1 infection is measured as a screen for new compounds capable of inhibiting the HIV virus. Five concentrations of drug were tested on uninfected and infected cells and cell growth was measured using a soluble formazan assay. […] Compounds that provided at least 50% protection were retested. Compounds that provided at least 50% protection on retest were listed as moderately active. Compounds that reproducibly provided 100% protection were listed as confirmed active. […] Note that the inability to provide protection could be due to toxicity.

Row | Compound | EC50 [µM] | IC50 [µM] | outcome
1 | C(/Cc1ccc2c(c1)OCO2)=N\NC1=NCCCCN1 | > 200 | 105 | 
2 | OCC1O[C@H](O[C@@H]2CCCN3CC(O)C(O)[C@@H]23)C(O)C(O)C1O (stereo partly specified) | > 1580 | > 1580 | 
3 | C[C@@H](CC(=O)OCc1ccccc1)OC1OC(COC(=O)C(C)(C)C)C(OC(=O)C(C)(C)C)C(OC(=O)C(C)(C)C)C1OC(=O)C(C)(C)C (stereo partly specified) | > 200 | > 200 | 
4 | COc1ccc(OC)c(NC(=O)CCC/C(CC(=O)c2ccc(O)c(OC)c2)=N\Nc2ccc([N+](=O)[O-])cc2)c1 | > 13.2 | > 13.2 | 
5 | O=C(OCCN1CCCCCC1)C(c1ccsc1)C1CCCCC1 (stereo unspecified) | > 200 | 35.5 | 
6 | N#CCCN(CCC#N)c1ccc(C(=O)NN)cc1 | > 363 | 288 | 
7 | N#Cc1c(SCc2ccccc2)nc(-c2ccccc2)[nH]c1=S | > 151 | 19.5 | 
8 | COC1/C=C/OC2(C)Oc3c(C)c(O)c4c(O)c(c(C=NN5C(C)CC(Cc6ccccc6)CC5C)c(O)c4c3C2=O)NC(=O)/C(C)=C/C=C/C(C)C(O)C(C)C(O)C(C)C(OC(C)=O)C1C (stereo unspecified) | > 200 | 8.71 | 
9 | O=C(O)[C@@H]1CSCN1C(=O)[C@@H]1CCC(=S)N1 | > 200 | > 200 | 
10 | CCOP(=O)(OCC)O/N=C/c1cccc(C(F)(F)F)c1 | > 204 | > 204 | 
11 | Cc1cn(C2CC(OC(c3ccccc3)(c3ccccc3)c3ccccc3)C(COC(c3ccccc3)(c3ccccc3)c3ccccc3)O2)c(=O)[nH]c1=O (stereo unspecified) | > 200 | > 200 | 
12 | CN(C)Cc1cc(N=Nc2ccccc2Cl)ccc1O | > 20 | 10.2 | 
13 | N#C/C(=C/c1ccccc1)c1ccccc1 | > 200 | 39.8 | 
14 | Cc1cc(S(=O)(=O)Nc2nnc3c4ccccc4ccn23)c(S)cc1Cl | 155 | > 200 | 
15 | Cc1cc2cc3ccc4cccc5ccc(c2oc1=O)c3c45 |  |  | inactive
16 | C[C@]12CCC(=O)C=C1CC[C@@H]1C2CC[C@@]2(C)C1CC[C@@H]2OC(=O)C12OC1CCC2=O (stereo partly specified) | > 200 | 10.7 | 
17 | C[C@]12CCC(=O)C(O)=C1CCC2=O |  |  | inactive
18 | CC(=O)c1ccc(N=Nc2ccc3nonc3c2N)cc1 | > 200 | > 200 | 
19 | CC(=O)N(C)c1ccc(/C=C2\C=Cc3ccccc32)cc1 | > 49 | 12.3 | 
20 | CC1(C2(C)OC(=O)c3ccccc32)OC(=O)c2ccccc21 (stereo unspecified) | > 200 | > 200 | 
21 | Cn1c2ccccc2n2c(=O)c3cc([N+](=O)[O-])ccc3c(C#N)c12 | > 100 | > 100 | 

Row | Compound | EC50 [µM] | IC50 [µM] | outcome
22 | CC(=O)/C(=C/N1CCNC1=S)C(=O)Nc1ccc(Cl)cc1 |  |  | inactive
23 | CC[C@@H]1OC2(C)CC(S(=O)(=O)c3ccccc3)CC1O2 (stereo partly specified) | 26.3 | 170 | 
24 | COc1ccc(-c2cc(-c3ccco3)c(C#N)c(=O)n2C2OC(OC(=O)c3ccccc3)C(OC(=O)c3ccccc3)C2OC(=O)c2ccccc2)cc1 (stereo unspecified) | > 7.24 | > 7.24 | 
25 | C=C[C@@H](C)[C@]1(C(=O)OC)CCCC12OCCO2 | > 282 | > 282 | 
26 | S=C1SCN(C(c2ccccc2)c2ccccc2)CN1C(c1ccccc1)c1ccccc1 | > 200 | 4.47 | 
27 | COC1CC(CC(C)O)CN(C#N)CCc2c1[nH]c1ccccc21 (stereo unspecified) | > 79.4 | > 79.4 | 
28 | O=c1[nH]c2ccsc2c(=O)n1COCc1ccccc1 | > 200 | > 200 | 
29 | Nc1nc(=S)c2c(ncn2CCO)[nH]1 | > 324 | 126 | 
30 | C[N+]1(C)C/C(=C\C=C\c2ccccc2)C(=O)/C(=C/C=C/c2ccccc2)C1 | > 7.76 | > 7.76 | 
31 | Cc1cccc(C)c1NC(=O)C(=O)CC(=O)c1cccc([N+](=O)[O-])c1 | > 525 | > 525 | 
32 | OCC(O)C(OC1OC(CO)C(O)C(O)C1O)c1nn(-c2ccc(Cl)cc2)c2nc3cc(Cl)ccc3nc12 (stereo unspecified) |  |  | inactive
33 | CC1=CC(=O)C(C(O)(C(F)(F)F)C(F)(F)F)C(C)(C)C1 (stereo unspecified) | > 200 | > 200 | 
34 | C=CCn1cnc2c(=O)[nH]c(Nc3ccccc3)nc21 | > 151 | > 151 | 
35 | COc1cc2c(ccc3c4cc(OC)c(OC)cc4c[n+](C)c23)cc1O | > 324 | 1.48 | 
36 | CCOC(=O)C(C(=O)OCC)=C1N[C@H](C(=O)OCC)CS1 | > 295 | > 295 | 
37 | COc1cc2c(OC)c(-c3c(C)cc4c(C(C)C)c(OC)c(OC)cc4c3OC)c(C)cc2c(C(C)C)c1OC |  |  | inactive
38 | CCOC(=O)NC(=O)c1cn(CCCCCCOC(=O)NCCCCCCNC(=O)OCCCCCCn2cc(C(=O)NC(=O)OCC)c(=O)[nH]c2=O)c(=O)[nH]c1=O |  |  | inactive
39 | CC(=O)/C(=C/c1cccc(F)c1)C(=O)c1ccccc1 | > 19.5 | > 19.5 | 
40 | Cc1cc2[nH]c3c(C#N)c(O)c(C)c(=O)n3c2cc1C | > 166 | > 166 | 
41 | COC(=O)C(CCC1(C)OCCO1)=[N+]=[N-] | > 251 | > 251 | 
42 | COC(=O)C12CCC(=O)N1CC(=O)c1c2[nH]c2ccccc12 (stereo unspecified) |  |  | inactive

Row | Compound | EC50 [µM] | IC50 [µM] | outcome
43 | Nc1nc2c(=O)c3ccccc3sc2s1 |  |  | inactive
44 | CC12CCCCC1(C)C2Sc1ccccc1 (stereo unspecified) |  |  | inactive
45 | C/C(CC(=O)Nc1ccc(C)c(C)c1)=N\NC(N)=O | > 692 | > 692 | 
46 | O=[N+]([O-])c1ccccc1P1(=O)OCCO1 | > 200 | > 200 | 
47 | N#CC12CCCC(=O)N1c1ccccc1S2 (stereo unspecified) | > 195 | 105 | 
48 | NC(CCCCNC(=O)CNC(=O)OCc1ccccc1)C(=O)NC(CCCCNC(=O)CNC(=O)OCc1ccccc1)C(=O)NC(CCCCNC(=O)CNC(=O)OCc1ccccc1)C(=O)NC(CCCCNC(=O)CNC(=O)OCc1ccccc1)C(=O)NC(CCCCNC(=O)CNC(=O)OCc1ccccc1)C(=O)NC(CCCCNC(=O)CNC(=O)OCc1ccccc1)C(=O)O (stereo unspecified) | > 100 | > 100 | 
49 | CC(C)C(NC(=O)OC(C)(C)C)C(=O)N(C)C(Cc1ccccc1)C(=O)N(C)C(C(=O)N(C)C(C(=O)O)C(C)C)C(C)C (stereo unspecified) (Boc-V[NMeF][NMeV][NMeV]-OH; configuration not given here) | > 200 | > 200 | 
50 | CC1N=C(c2ccccc2)c2cc(Cl)ccc2NC1=O (stereo unspecified) | > 18.2 | > 18.2 | 
51 | COc1cc(/C=C2\SC(=S)N(C=C3C(=O)NC(=O)NC3=O)C2=O)cc(OC)c1OC | > 200 | 23.4 | 
52 | COC(=O)C1C(O)CC(c2ccccn2)N(Cc2ccccc2)C1c1ccccn1 (stereo unspecified) | > 89.1 | 83.2 | 
53 | CC1=CC(=C(c2cc(C)c(O)c(C(=O)O)c2)c2cc(C)c(O)c(C(=O)O)c2)C=C(C(=O)O)C1=O |  |  | inactive
54 | CCCCOB(OCCCC)OCCCC | > 200 | > 200 | 
55 | COc1ccc(Cl)cc1NC(=O)O/N=C(\Cl)C(C)C | > 20 | 2.51 | 
56 | Cc1nc2c(c(=O)[nH]1)C1CCCCCCCN1C(=S)N2C (stereo unspecified) | > 200 | 132 | 
57 | Cc1ccc(S(=O)(=O)SCc2ccccc2)cc1 | > 67.6 | 5.62 | 
58 | CC1(CO)COC(C)(C)OC1 | > 1550 | 1410 | 
59 | Cn1c(=O)c2nc(NCC3CCCCC3)sc2n(C)c1=O | > 107 | 102 | 
60 | Cc1ccc(S(=O)(=O)N2CCSCCSCCN(S(=O)(=O)c3ccc(C)cc3)CCN(S(=O)(=O)c3ccc(C)cc3)CC2)cc1 | > 14.1 | > 14.1 | 
61 | CCOC(=O)c1oc2ccc(OC)c3c2c1CCC3 |  |  | inactive
